Reference: patent US6492410B1, “Combinations of protein farnesyltransferase and HMG CoA reductase inhibitors and their use to treat cancer” (Warner-Lambert Company, priority 1998, dated 2002)
One block for each compound: values may come before it.

Key:
[1] = test system: HT1080 human fibrosarcoma; conditions: 100 mg/kg; HT1080 xenograft in nude mice; cited from earlier work
[2] = test system: EJ-1 human bladder carcinoma; conditions: 100 mg/kg; EJ-1 xenograft in nude mice; cited from earlier work
[3] = test system: human colon carcinoma xenografts; conditions: 100 mg/kg; human colon carcinoma xenograft in nude mice; cited from earlier work
[4] = test system: human lung carcinoma with K-ras mutation and p53 deletion; conditions: nude mice; cited from earlier work
[5] = test system: mammary and salivary carcinomas; conditions: daily administration; ras transgenic mice; cited from earlier work
P388/S leukemia = assay: cells; conditions: Mus musculus, 72 h, read-out: IC50 (concentration at which growth (cell#) is reduced by 50%)
Procedure: (§1) A proliferation assay was performed to ascertain the toxicity of a combination of a famesyl protein transferase and lovastatin at various concentrations to a number of cancerous cell lines. The assay was also performed to ascertain the toxicity of the farnesyl protein transferase alone as a comparison against the combination.
(§2) Cell lines (Panc-1, Colon26, HT-29 Colon, H460 Lung, H-ras NIH 3T3 fibroblast, P388/ADR leukemia, and P388/S leukemia) were set up at various starting concentrations in 24- or 12-well dishes. Suspension cells were treated immediately; attached monolayer cells were allowed to attach for 24 hours prior to treatment. The cells were treated in one series of tests with lovastatin and solvent (DMSO); in another series of tests with a combination of lovastatin, solvent (DMSO) and the farnesyltransferase inhibitor, (S)-[1-{(4-benzyloxy-benzyl)-[(2-methyl-2-phenyl-propyl carbamoyl)-methyl]-carbamoyl}-2-(3H1-imidazol-4-yl)-ethyl]-carbamic acid benzyl ester (Compound A); and in a third series of cells were treated with only the farnesyltransferase inhibitor. After 72 hours of treatment, the cells (growing in 1 mL of medium) are trypsinized with warm (37 degrees celsius) trypsin-EDTA (0.5 mL for 1-2 minutes), agitated, rescued with 0.5 mL of warm (37) medium, then diluted in […] Isoton (isotonic saline) for a final volume of 10 mL, 0.5 mL are then counted on a Coulter cell counter.
(§3) The data for lovastatin treatment alone is relative to the DMSO-treated controls; the data for combination treatment is relative to the PFT inhibitor treatment alone samples.

P388/ADR leukemia = assay: cells; conditions: Mus musculus, 72 h, read-out: IC50 (concentration at which growth (cell#) is reduced by 50%)
Procedure: as §1, §2, §3

H460 Lung = assay: cells; conditions: Homo sapiens, NCI-H460, 72 h, read-out: IC50 (concentration at which growth (cell#) is reduced by 50%)
Procedure: as §1, §2, §3

H-ras NIH 3T3 fibroblast = assay: cells; conditions: Mus musculus, NIH3T3, 72 h, read-out: IC50 (concentration at which growth (cell#) is reduced by 50%)
Procedure: as §1, §2, §3

Panc-1 = assay: cells; conditions: Homo sapiens, PANC-1, 72 h, read-out: IC50 (concentration at which growth (cell#) is reduced by 50%)
Procedure: as §1, §2, §3

HT-29 Colon = assay: cells; conditions: Homo sapiens, HT-29, 72 h, read-out: IC50 (concentration at which growth (cell#) is reduced by 50%)
Procedure: as §1, §2, §3

Colon26 = assay: cells; conditions: Mus musculus, Colon 26, 72 h, read-out: IC50 (concentration at which growth (cell#) is reduced by 50%)
Procedure: as §1, §2, §3

[6] = test system: hepatocellular, pancreatic, and central nervous system tumors; conditions: in vitro and in animal models; cited from earlier work

Structure (SMILES): COC(=O)[C@H](CCSC)NC(=O)[C@H](/C=C\[C@@H](/C=C/[C@@H](N)CS)C(C)C)Cc1ccccc1 [B 1086]
tumor growth [1]: inhibit tumor growth
tumor growth [2]: inhibit tumor growth
tumor growth [3]: inhibit tumor growth

Structure (SMILES): CSCC[C@H](NC(=O)c1ccc(NC[C@@H](N)CS)cc1-c1ccccc1)C(=O)O [FT1276]
tumor growth [4]: selectively block tumor growth

Structure (SMILES): CC[C@H](C)[C@@H](CO[C@@H](Cc1ccccc1)C(=O)N[C@@H](CCS(C)(=O)=O)C(=O)OC(C)C)NC[C@@H](N)CS [L-744,832]
tumor regression [5]: caused tumor regression

IC50 (P388/S leukemia): 4 µM
IC50 (P388/ADR leukemia): 10.7 µM
IC50 (H460 Lung): 5.5 µM
IC50 (Panc-1): 18.8 µM
IC50 (HT-29 Colon): 11.4 µM
Structure (SMILES): CC[C@H](C)C(=O)O[C@H]1C[C@@H](C)C=C2C=C[C@H](C)[C@H](CC[C@@H]3C[C@@H](O)CC(=O)O3)[C@H]21 [Lovastatin, lovastatin]
IC50 (H-ras NIH 3T3 fibroblast): 17.4 µM
IC50 (Colon26): 1.2 µM
tumor growth [6]: selectively inhibited tumor growth
